{"source": "patent US20240358790A1", "about": "“COMPOSITIONS AND METHODS FOR TREATING AUTOIMMUNITY, INCLUDING AUTOIMMUNITY ASSOCIATED WITH CANCER AND CANCER THERAPY” (Interk Peptide Therapeutics Limited, priority 2021, published 2024)", "key": {"IL-2": {"tested_on": "IL-2", "assay": "IL-2 ELISA, anti-CD3/anti-CD28 stimulated isolated CD3+ T cells", "assay_type": "cell-based, human", "conditions": "72 hrs"}, "[1]": {"assay": "PET-CT uptake of Cu64-labelled NOTA-peptide in lung and blood after SC, IP, oral gavage", "assay_type": "in vivo", "conditions": "200 ug SC/IP and 1 mg OG, mice", "procedure": "For FIG. 1d, 1,4,7-Triazacyclononane-1,4,7-triacetic acid (NOTA) conjugated peptides were acquired from Auspep, reconstituted in deionised water at 10 mg/mL and used without further purification. Peptides were incubated with ^64Cu at 1000-fold excess of peptide in 0.1 M pH 5.5 ammonium acetate buffer for 45 minutes at 37° C. 1 μL Samples of each solution were taken and mixed 1:1 with 50 mM EDTA. EDTA incubated sample or neat solution was spotted on TLC paper (Agilent iTLC-SG Glass microfiber chromatography paper impregnated with silica gel) and run with 50:50 H2O:ethanol. Detection of radiolabelled species migration was then achieved by imaging on a Bruker In Vivo MS FX Pro imaging system using a radioisotopic phosphor screen. Control experiments were conducted to monitor the elution profile of free ^64Cu and ^64Cu bound to EDTA for quality control. […]\nThe PET Images were reconstructed using an ordered-subset expectation maximization (OSEM2D) algorithm and analysed using the Inveon Research Workplace software (IRW 4.1) (Siemens) which allows fusion of CT and PET images and definition of regions of interest (ROIs). […] Activity concentrations were then expressed as percent of the decay-corrected injected activity per cm^3 of tissue that can be approximate as percentage injected dose/g (% ID/g). […]"}, "Lewis Lung Cancer cells": {"tested_on": "Lewis Lung Cancer cells", "assay": "SRB proliferation assay, Lewis Lung Cancer cells", "assay_type": "cell-based", "conditions": "2.5 μM, 72 h", "procedure": "(§1) In addition, doxorubicin at 2.5 μM was tested in 5 replicate wells as a positive control. Cells were cultured for a further 72 h in the presence of drug or control before the cell culture medium was removed and the attached cells fixed in ice-cold trichloroacetic acid. […] Each experiment was performed on two independent occasions (biological replicates) and data were analysed in GraphPad Prism 9 using non-linear fit of log (inhibitor) versus response."}, "B16-F10 melanoma cells": {"tested_on": "B16-F10 melanoma cells", "assay": "SRB proliferation assay, B16-F10 melanoma cells", "assay_type": "cell-based", "conditions": "2.5 μM, 72 h", "procedure": "as §1"}, "Lck": {"target": "Lck (Homo sapiens, UniProt P06239)", "sequence (P06239 whole entry)": "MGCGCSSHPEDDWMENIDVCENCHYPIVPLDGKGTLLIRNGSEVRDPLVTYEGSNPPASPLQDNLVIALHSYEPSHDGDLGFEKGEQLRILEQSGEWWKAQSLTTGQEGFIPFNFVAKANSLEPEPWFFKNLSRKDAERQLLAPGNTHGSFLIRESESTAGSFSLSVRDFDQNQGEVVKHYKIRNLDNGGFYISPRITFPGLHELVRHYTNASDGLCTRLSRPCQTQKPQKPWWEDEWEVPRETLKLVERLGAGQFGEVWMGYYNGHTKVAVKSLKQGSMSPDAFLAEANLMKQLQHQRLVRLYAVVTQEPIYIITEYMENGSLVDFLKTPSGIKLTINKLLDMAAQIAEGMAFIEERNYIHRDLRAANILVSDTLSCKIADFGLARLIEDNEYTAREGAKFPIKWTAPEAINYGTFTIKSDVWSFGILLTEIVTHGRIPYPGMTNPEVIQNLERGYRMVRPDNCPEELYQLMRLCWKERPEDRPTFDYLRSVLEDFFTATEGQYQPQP", "assay": "Lck kinase activity assay ([γ33P-ATP], filtermat)", "assay_type": "biochemical", "procedure": "Lck is incubated with 50 mM Tris pH 7.5, 0.1 mM EGTA, 0.1 mM Na3VO4, 250 μM KVEKIGEGTYGWYK (Cdc2 peptide), 10 mM Magnesium acetate and [γ33P-ATP] (specific activity approx. 500 cpm/pmol, concentration as required). The reaction is initiated by the addition of the Mg/ATP mix. After incubation for 40 minutes at room temperature, the reaction is stopped by the addition of phosphoric acid to a concentration of 0.5%. 10 μL of the reaction is then spotted onto a P30 filtermat and washed four times for 4 minutes in 0.425% phosphoric acid and once in methanol prior to drying and scintillation counting.”"}, "c-Src": {"target": "c-Src (Homo sapiens, UniProt P12931)", "assay": "c-Src kinase activity assay ([γ33P-ATP], filtermat)", "assay_type": "biochemical", "procedure": "c-Src, Fyn, Hck is incubated with 8 mM MOPS pH 7.0, 0.2 mM EDTA, 250 μM KVEKIGEGTYGVVYK (Cdc2 peptide), 10 mM MgAcetate and [γ33P-ATP] (specific activity approx. 500 cpm/pmol, concentration as required). The reaction is initiated by the addition of the MgATP mix. After incubation for 40 minutes at room temperature, the reaction is stopped by the addition of 3% phosphoric acid solution. 10 μL of the reaction is then spotted onto a P30 filtermat and washed three times for 5 minutes in 75 mM phosphoric acid and once in methanol prior to drying and scintillation counting."}, "exhausted CD4+ cells": {"tested_on": "exhausted CD4+ cells", "assay": "IL-2 from exhausted CD4+ cells upon restimulation (MBP-Tracker mouse splenocytes)", "assay_type": "cell-based, mice", "conditions": "72 hrs, multiplex immunoassay", "procedure": "Supernatants were collected after 72 hrs in culture to assess IL-2 cytokine production measured by multiplex immunoassay. Data are presented as mean+/−SEM from 4 biological replicates normalised to vehicle control (0). **P<0.01, Non-parametric one way ANOVA (Freidman) with Dunns post-test was used to compare groups at each dose level to lowest level (0.08 μM).\nT examine the ability of peptides comprising D-amino acids induce low levels of IL-2, IL-2 expression on exhausted CD4+ cells upon restimulation was examined. In brief, a single spleen per experiment was removed from MBP-Tracker mice and processed to generate a single cell suspension of splenocytes. Cells were resuspended at 3×10^6/mL and stimulated with WT-MBP (control, non-exhausted cells) or APL-MBP (to generate exhausted cells). Cells were stimulated for 72 hr. Following stimulation, T cells were purified by ficoll density gradient and subsequently re-plated at 2×10^6/mL in 20U/mL IL-2 for four days. After 4 days, cells were collected, resuspended (4×10^5/mL, final 2×10^4 per well) and restimulated using irradiated APC (from B10PL×C57BL/6 mice, 4×10^6/mL, final 2×10^5 per well) a single dose of APL-MBP peptide, together with test or reference substance or appropriate controls for 72 hrs. […]"}, "CD28": {"tested_on": "CD28", "assay": "CD28 expression on CD4+ T cells of stimulated PBMCs", "assay_type": "cell-based, human", "conditions": "PBMCs + anti-CD3, 72 hrs", "procedure": "FIG. 7: RSKAKNPLYR-(2Adod)4-NH2 increases CD28 levels on T cells. […] Data presented indicates the mean respective expression in CD4+ T cell populations in response to peptide treatment, +/−SEM, n=4. Data was analysed by two-way ANOVA with Dunnett's post test, *P<0.05, **P<0.01, ***P<0.001, ****P<0.0001. *** indicates all bars under the line are significant compared to vehicle. Red dotted line indicates unstimulated PBMC expression.\nBecause full activation of MAP kinases requires the presence of the TCR co-receptor, the present inventors sought to examine the expression of CD28 on T cells."}, "MAP4K1 (HPK1)": {"target": "MAP4K1 (HPK1) (Homo sapiens, UniProt Q92918)", "sequence (Q92918 whole entry)": "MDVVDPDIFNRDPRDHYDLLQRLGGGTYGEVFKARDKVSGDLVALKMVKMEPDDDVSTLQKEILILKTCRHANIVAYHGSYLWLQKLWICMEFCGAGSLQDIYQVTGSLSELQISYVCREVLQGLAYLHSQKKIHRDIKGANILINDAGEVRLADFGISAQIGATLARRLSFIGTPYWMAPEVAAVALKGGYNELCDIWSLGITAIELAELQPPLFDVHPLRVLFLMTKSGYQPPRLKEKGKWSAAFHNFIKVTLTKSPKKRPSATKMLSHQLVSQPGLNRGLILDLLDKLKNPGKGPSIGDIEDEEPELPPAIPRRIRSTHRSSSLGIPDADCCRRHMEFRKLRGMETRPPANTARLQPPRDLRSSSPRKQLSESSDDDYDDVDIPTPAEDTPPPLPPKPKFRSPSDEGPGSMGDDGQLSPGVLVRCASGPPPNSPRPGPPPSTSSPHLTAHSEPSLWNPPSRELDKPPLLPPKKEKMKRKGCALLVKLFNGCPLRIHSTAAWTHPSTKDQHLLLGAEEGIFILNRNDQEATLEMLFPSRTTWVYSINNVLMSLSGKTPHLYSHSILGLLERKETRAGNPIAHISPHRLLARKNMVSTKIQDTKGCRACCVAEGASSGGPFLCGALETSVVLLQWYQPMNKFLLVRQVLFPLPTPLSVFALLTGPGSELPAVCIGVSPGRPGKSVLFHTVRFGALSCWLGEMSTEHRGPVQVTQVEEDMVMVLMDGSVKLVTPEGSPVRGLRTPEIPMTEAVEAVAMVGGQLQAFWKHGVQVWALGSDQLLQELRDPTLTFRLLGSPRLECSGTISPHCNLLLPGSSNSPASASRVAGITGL", "assay": "MAP4K1 (HPK1) kinase activity", "assay_type": "biochemical"}}, "note": "Non-standard residues stand in square brackets, D forms with d. Residues, ends and D or L forms follow the SMILES beside them. No end group written: not given here. ξ: configuration not given here. ξGly(decyl) = CCCCCCCCCCC(N)C(=O)O; 2Adod = 2-aminododecanoic acid"}
{"molecule": "COc1cc(-c2nn([C@H]3CC[C@H](N4CCN(C(C)=O)CC4)CC3)c3ncnc(N)c23)ccc1NC(=O)c1cc2ccccc2n1C", "note": "[A-770041]", "values": [{"measurement": "enhancement of IL-2 production, Lck inhibitor compared with IK14004", "setting": "IL-2", "value": "ten-fold greater enhancement"}, {"measurement": "increase in IL-2 secretion above vehicle control", "setting": "IL-2; A-770041 at 100 nM", "value": 300, "unit": "%"}]}
{"molecule": "CCCCCCCCCCC(NC(=O)C(CCCCCCCCCC)NC(=O)C(CCCCCCCCCC)NC(=O)C(CCCCCCCCCC)NC(=O)[C@H](CCCNC(=N)N)NC(=O)[C@H](Cc1ccc(O)cc1)NC(=O)[C@H](CC(C)C)NC(=O)[C@@H]1CCCN1C(=O)[C@H](CC(N)=O)NC(=O)[C@H](CCCCN)NC(=O)[C@H](C)NC(=O)[C@H](CCCCN)NC(=O)[C@H](CO)NC(=O)[C@@H](N)CCCNC(=N)N)C(N)=O", "note": "(some centres unmarked) [IK14004, RSKAKNPLYR-(2Adod)4-NH2] (H-RSKAKNPLYR[ξGly(decyl)][ξGly(decyl)][ξGly(decyl)][ξGly(decyl)]-NH2; N-terminus assumed)", "values": [{"measurement": "tolerability of doses", "setting": "[1]", "value": "Well tolerated"}]}
{"molecule": "COc1cccc2c1C(=O)c1c(O)c3c(c(O)c1C2=O)C[C@@](O)(C(=O)CO)C[C@@H]3O[C@H]1C[C@H](N)[C@H](O)[C@H](C)O1", "note": "[doxorubicin]", "values": [{"measurement": "kill in vitro, Lewis Lung Cancer cells", "setting": "Lewis Lung Cancer cells", "value": 100, "unit": "%"}, {"measurement": "kill in vitro, B16-F10 melanoma cells", "setting": "B16-F10 melanoma cells", "value": 100, "unit": "%"}]}
{"molecule": "RSKAKNPLYR [IK14000]", "values": [{"measurement": "effect on Lck activity", "setting": "Lck", "value": "neither the 10 mer RSKAKNPLYR (designated IK14000) nor 4 lipidic peptide residues designated IK00041 activated Lck"}, {"measurement": "effect on c-Src activity", "setting": "c-Src", "value": "inhibits c-Src"}]}
{"molecule": "RSKAKNPLYR-(2Adod)3-NH2 (RSKAKNPLYR-{2Adod-2Adod-2Adod-NH2}) [IK14003, … conjugated to three 2-amino dodecanoic acid residues]", "values": [{"measurement": "effect on c-Src activity", "setting": "c-Src", "value": "stimulated c-Src activity above 1 uM"}]}
{"molecule": "rskaknplyr-(2Adod)4-NH2 ([dR][dS][dK][dA][dK][dN][dP][dL][dY][dR]-{2Adod-2Adod-2Adod-2Adod-NH2}) […-(2Adod)4-NH2 comprising D amino acids]", "values": [{"measurement": "IL-2 expression on exhausted CD4+ cells upon restimulation", "setting": "exhausted CD4+ cells", "value": "increases IL-2 expression"}, {"measurement": "CD28 levels", "setting": "CD28", "value": "increased CD28 levels"}, {"measurement": "effect on MAP4K1 (HPK1) kinase activity", "setting": "MAP4K1 (HPK1)", "value": "inhibits"}]}
